Assay results published in the supplement of paper PMC11424490.

Assays:
Assay in all cases: combination cScore with sotorasib (Bliss gap around IC50) (%PoC); higher = stronger additive effect
NCI-H2122 = system: NCI-H2122
Outline: (§1)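 The score averages the gap between expected and measured viability under Bliss independence, taken over a field around the IC50 of each single agent or, where an IC50 was not reached, at the highest concentrations. Viability came from CellTiter-Glo luminescence, normalised to vehicle wells as percent of control and fitted with four-parameter curves. NCI-H2122, NCI-H358 and SW837 cells were dosed in concentration matrices 24 h after seeding and grown for 72 h, or 144 h for SW837.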

NCI-H358 = system: NCI-H358
Outline: as §1

SW837 = system: SW837
Outline: as §1

SMILES	combination cScore with sotorasib (NCI-H2122)	combination cScore with sotorasib (NCI-H358)	combination cScore with sotorasib (SW837)
CN(C)C/C=C/C(=O)Nc1cc2c(Nc3ccc(F)c(Cl)c3)ncnc2cc1O[C@H]1CCOC1 [Afatinib] + C=CC(=O)N1CCN(c2nc(=O)n(-c3c(C)ccnc3C(C)C)c3nc(-c4c(O)cccc4F)c(F)cc23)[C@@H](C)C1 [sotorasib]	22.8	11.4	20.1
COc1cc2ncnc(Nc3ccc(F)c(Cl)c3)c2cc1OCCCN1CCOCC1 [Gefitinib] + C=CC(=O)N1CCN(c2nc(=O)n(-c3c(C)ccnc3C(C)C)c3nc(-c4c(O)cccc4F)c(F)cc23)[C@@H](C)C1 [sotorasib]	26.4	8.62	23.2
COc1cc(N2CCC(N3CCN(C)CC3)CC2)ccc1Nc1ncc(Cl)c(Nc2ccccc2S(=O)(=O)C(C)C)n1 [NVP-TAE684] + C=CC(=O)N1CCN(c2nc(=O)n(-c3c(C)ccnc3C(C)C)c3nc(-c4c(O)cccc4F)c(F)cc23)[C@@H](C)C1 [sotorasib]	14.6	5.9	22.3
O=C(/C=C/N1C[C@H]2C[C@@H]1CN2c1ccccn1)c1ccccc1O [PFI-3] + C=CC(=O)N1CCN(c2nc(=O)n(-c3c(C)ccnc3C(C)C)c3nc(-c4c(O)cccc4F)c(F)cc23)[C@@H](C)C1 [sotorasib]	15.8	0.77	-2.6
Cc1nc(Nc2ncc(C(=O)Nc3c(C)cccc3Cl)s2)cc(N2CCN(CCO)CC2)n1 [Dasatinib] + C=CC(=O)N1CCN(c2nc(=O)n(-c3c(C)ccnc3C(C)C)c3nc(-c4c(O)cccc4F)c(F)cc23)[C@@H](C)C1 [sotorasib]	30.8	9.3	17.9
CC(C)n1nc(-c2ccc3oc(N)nc3c2)c2c(N)ncnc21 [MLN-0128] + C=CC(=O)N1CCN(c2nc(=O)n(-c3c(C)ccnc3C(C)C)c3nc(-c4c(O)cccc4F)c(F)cc23)[C@@H](C)C1 [sotorasib]	6.3	10.3	15.9
CS(=O)(=O)CCNCc1ccc(-c2ccc3ncnc(Nc4ccc(OCc5cccc(F)c5)c(Cl)c4)c3c2)o1 [Lapatinib] + C=CC(=O)N1CCN(c2nc(=O)n(-c3c(C)ccnc3C(C)C)c3nc(-c4c(O)cccc4F)c(F)cc23)[C@@H](C)C1 [sotorasib]	28.9	12.8	15.4
O=C(c1c(F)ccc(NS(=O)(=O)N2CC[C@@H](F)C2)c1F)c1c[nH]c2ncc(-c3cnc(C4CC4)nc3)cc12 [PLX8394] + C=CC(=O)N1CCN(c2nc(=O)n(-c3c(C)ccnc3C(C)C)c3nc(-c4c(O)cccc4F)c(F)cc23)[C@@H](C)C1 [sotorasib]	24.2	6.09	3.79
CC(C)N(CCCNC(=O)Nc1ccc(C(C)(C)C)cc1)C[C@H]1O[C@@H](n2ccc3c(N)ncnc32)[C@H](O)[C@@H]1O + C=CC(=O)N1CCN(c2nc(=O)n(-c3c(C)ccnc3C(C)C)c3nc(-c4c(O)cccc4F)c(F)cc23)[C@@H](C)C1 [sotorasib]	8.67	2.07	1.84
C=CC(=O)N1CCC[C@@H](n2nc(-c3ccc(Oc4ccccc4)cc3)c3c(N)ncnc32)C1 [Ibrutinib] + C=CC(=O)N1CCN(c2nc(=O)n(-c3c(C)ccnc3C(C)C)c3nc(-c4c(O)cccc4F)c(F)cc23)[C@@H](C)C1 [sotorasib]	27.9	14.4	13.3
COc1cc(Nc2c(C#N)cnc3cc(OCCCN4CCN(C)CC4)c(OC)cc23)c(Cl)cc1Cl [Bosutinib] + C=CC(=O)N1CCN(c2nc(=O)n(-c3c(C)ccnc3C(C)C)c3nc(-c4c(O)cccc4F)c(F)cc23)[C@@H](C)C1 [sotorasib]	8.9	5.71	11.2
Cc1nc(NC(=O)N2CCC[C@H]2C(N)=O)sc1-c1ccnc(C(C)(C)C(F)(F)F)c1 [BYL-719] + C=CC(=O)N1CCN(c2nc(=O)n(-c3c(C)ccnc3C(C)C)c3nc(-c4c(O)cccc4F)c(F)cc23)[C@@H](C)C1 [sotorasib]	24.8	5.72	24.4
CCN(CCCOc1ccc2c(Nc3cc(CC(=O)Nc4cccc(F)c4)[nH]n3)ncnc2c1)CCOP(=O)(O)O [AZD-1152] + C=CC(=O)N1CCN(c2nc(=O)n(-c3c(C)ccnc3C(C)C)c3nc(-c4c(O)cccc4F)c(F)cc23)[C@@H](C)C1 [sotorasib]	11.3	1.15	9.37
Cc1c(N)nc([C@H](CC(N)=O)NC[C@H](N)C(N)=O)nc1C(=O)N[C@H](C(=O)N[C@H](C)[C@@H](O)[C@H](C)C(=O)N[C@H](C(=O)NCCc1nc(-c2nc(C(=O)NCCC[S+](C)C)cs2)cs1)[C@@H](C)O)[C@@H](OC1OC(CO)C(O)C(O)C1OC1OC(CO)C(O)C(OC(N)=O)C1O)c1cnc[nH]1 (stereo not given in full) [Bleomycin] + C=CC(=O)N1CCN(c2nc(=O)n(-c3c(C)ccnc3C(C)C)c3nc(-c4c(O)cccc4F)c(F)cc23)[C@@H](C)C1 [sotorasib]	19.9	-4.36	11.1
Cc1c(Cn2c(C)nc3c(C(=O)O)cc(N4CCOCC4)cc32)cccc1C(F)(F)F + C=CC(=O)N1CCN(c2nc(=O)n(-c3c(C)ccnc3C(C)C)c3nc(-c4c(O)cccc4F)c(F)cc23)[C@@H](C)C1 [sotorasib]	5.26	-2.39	9.96
O=c1cc(-c2cccc3c2Sc2ccccc2S3)oc(N2CCOCC2)c1 + C=CC(=O)N1CCN(c2nc(=O)n(-c3c(C)ccnc3C(C)C)c3nc(-c4c(O)cccc4F)c(F)cc23)[C@@H](C)C1 [sotorasib]	11.2	12.9	10.6
C=CC(=O)Nc1cc(Nc2nccc(-c3cn(C)c4ccccc34)n2)c(OC)cc1N(C)CCN(C)C [Osimertinib] + C=CC(=O)N1CCN(c2nc(=O)n(-c3c(C)ccnc3C(C)C)c3nc(-c4c(O)cccc4F)c(F)cc23)[C@@H](C)C1 [sotorasib]	16.7	11.6	15.9
COc1ncc(-c2ccc3nccc(-c4ccnnc4)c3c2)cc1NS(=O)(=O)c1ccc(F)cc1F + C=CC(=O)N1CCN(c2nc(=O)n(-c3c(C)ccnc3C(C)C)c3nc(-c4c(O)cccc4F)c(F)cc23)[C@@H](C)C1 [sotorasib]	20.8	5.96	8.72
O=C(/C=C/c1cccc(S(=O)(=O)Nc2ccccc2)c1)NO [Belinostat] + C=CC(=O)N1CCN(c2nc(=O)n(-c3c(C)ccnc3C(C)C)c3nc(-c4c(O)cccc4F)c(F)cc23)[C@@H](C)C1 [sotorasib]	10.8	-2.69	9.09
CC(C)C[C@H](NC(=O)[C@H](Cc1ccccc1)NC(=O)c1cnccn1)B(O)O [Bortezomib] + C=CC(=O)N1CCN(c2nc(=O)n(-c3c(C)ccnc3C(C)C)c3nc(-c4c(O)cccc4F)c(F)cc23)[C@@H](C)C1 [sotorasib]	5.05	0.21	-5.84
O=C(O)CNC(=O)c1c(O)c2ccccc2n(Cc2ccccc2)c1=O [IOX2] + C=CC(=O)N1CCN(c2nc(=O)n(-c3c(C)ccnc3C(C)C)c3nc(-c4c(O)cccc4F)c(F)cc23)[C@@H](C)C1 [sotorasib]	21.3	0.66	17.9
NC1(c2ccc(-c3nc4ccn5c(=O)[nH]nc5c4cc3-c3ccccc3)cc2)CCC1 [MK-2206] + C=CC(=O)N1CCN(c2nc(=O)n(-c3c(C)ccnc3C(C)C)c3nc(-c4c(O)cccc4F)c(F)cc23)[C@@H](C)C1 [sotorasib]	15.5	1.28	18
C[C@H](NC(=O)c1c(N)nn2cccnc12)c1cc2cccc(C#Cc3cnn(C)c3)c2c(=O)n1-c1ccccc1 [IPI-549] + C=CC(=O)N1CCN(c2nc(=O)n(-c3c(C)ccnc3C(C)C)c3nc(-c4c(O)cccc4F)c(F)cc23)[C@@H](C)C1 [sotorasib]	15.1	2.47	4.45
CC1(C)CCC(c2ccc(Cl)cc2)=C(CN2CCN(c3ccc(C(=O)NS(=O)(=O)c4ccc(N[C@H](CCN5CCOCC5)CSc5ccccc5)c(S(=O)(=O)C(F)(F)F)c4)cc3)CC2)C1 [ABT-263] + C=CC(=O)N1CCN(c2nc(=O)n(-c3c(C)ccnc3C(C)C)c3nc(-c4c(O)cccc4F)c(F)cc23)[C@@H](C)C1 [sotorasib]	15.1	2.08	20.7
Cc1c(-c2c(-c3ccc(F)o3)sc3ncnc(O[C@H](Cc4ccccc4OCc4ccnn4CC(F)(F)F)C(=O)O)c23)ccc(OCCN2CCN(C)CC2)c1Cl + C=CC(=O)N1CCN(c2nc(=O)n(-c3c(C)ccnc3C(C)C)c3nc(-c4c(O)cccc4F)c(F)cc23)[C@@H](C)C1 [sotorasib]	10.4	4.06	2.8
